The record followed here is patent US9688710B2, “Inhibitors of sodium glucose cotransporter 1” (LEXICON PHARMACEUTICALS, INC., priority 2012, dated 2017).

For assay [1], the target named is Human sodium/glucose co-transporter type 2 (SGLT2) (Homo sapiens (Human), UniProt P31639). Description: In vitro human SGLT2 inhibition assay (14C-AMG uptake). The assay is classed as cell-based. To be noted: HEK293 cells expressing human HA-SGLT2, 14C-AMG uptake. An outline of the steps: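 HEK293 cells stably expressing HA-tagged human SGLT2, seeded overnight, washed into Na+-containing HEPES/Tris uptake buffer with 1 mg/mL BSA, pH 7.3. Compound added, then 14C-AMG (100 nCi); 1-2 h at 37 °C, 5% CO2. Washed cells counted by scintillation for 14C-AMG uptake.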
Sequence of Human sodium/glucose co-transporter type 2 (SGLT2) (P31639 whole entry): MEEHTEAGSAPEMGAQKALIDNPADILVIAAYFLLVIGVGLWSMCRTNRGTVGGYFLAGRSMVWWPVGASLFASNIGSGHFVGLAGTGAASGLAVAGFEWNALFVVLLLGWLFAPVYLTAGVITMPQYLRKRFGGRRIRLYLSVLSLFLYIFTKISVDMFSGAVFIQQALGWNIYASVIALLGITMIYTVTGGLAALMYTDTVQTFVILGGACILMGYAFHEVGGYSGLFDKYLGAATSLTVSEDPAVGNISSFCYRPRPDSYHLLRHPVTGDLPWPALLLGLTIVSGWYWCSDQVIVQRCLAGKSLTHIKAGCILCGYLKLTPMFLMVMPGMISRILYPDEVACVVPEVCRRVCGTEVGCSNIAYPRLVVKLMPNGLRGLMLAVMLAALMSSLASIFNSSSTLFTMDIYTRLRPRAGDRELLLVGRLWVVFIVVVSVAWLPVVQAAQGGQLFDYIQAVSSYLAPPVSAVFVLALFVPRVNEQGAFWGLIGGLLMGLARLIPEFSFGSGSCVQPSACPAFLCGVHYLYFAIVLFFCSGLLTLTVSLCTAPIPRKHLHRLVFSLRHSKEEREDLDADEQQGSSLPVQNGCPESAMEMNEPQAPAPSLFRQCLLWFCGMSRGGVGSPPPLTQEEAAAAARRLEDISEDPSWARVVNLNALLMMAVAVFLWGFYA

Assay [2] concerns the target Human sodium/glucose co-transporter type 1 (SGLT1) (Homo sapiens (Human), UniProt P13866). Description: In vitro human SGLT1 inhibition assay (14C-AMG uptake). The assay is classed as cell-based. Details: key to SGLT1 (human SGLT1 IC50): ***: a value less than 0.01 μM; **: a value less than 0.1 μM; *: a value less than 1 μM; —: a value not measured or exceeding μM. To be noted: HEK293 cells expressing human HA-SGLT1, 14C-AMG uptake. An outline of the steps: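 HEK293 cells stably expressing human HA-tagged SGLT1 (30,000/well, overnight) were washed into Na+-containing uptake buffer (140 mM NaCl, HEPES/Tris, 1 mg/mL BSA, pH 7.3). Cells then received compound plus 100 nCi 14C-AMG for 1–2 h at 37 °C; after washing, AMG uptake was quantified by scintillation counting.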

What is called IC50 is the concentration that inhibits the measured activity by half.

Sequence of Human sodium/glucose co-transporter type 1 (SGLT1) (P13866 whole entry): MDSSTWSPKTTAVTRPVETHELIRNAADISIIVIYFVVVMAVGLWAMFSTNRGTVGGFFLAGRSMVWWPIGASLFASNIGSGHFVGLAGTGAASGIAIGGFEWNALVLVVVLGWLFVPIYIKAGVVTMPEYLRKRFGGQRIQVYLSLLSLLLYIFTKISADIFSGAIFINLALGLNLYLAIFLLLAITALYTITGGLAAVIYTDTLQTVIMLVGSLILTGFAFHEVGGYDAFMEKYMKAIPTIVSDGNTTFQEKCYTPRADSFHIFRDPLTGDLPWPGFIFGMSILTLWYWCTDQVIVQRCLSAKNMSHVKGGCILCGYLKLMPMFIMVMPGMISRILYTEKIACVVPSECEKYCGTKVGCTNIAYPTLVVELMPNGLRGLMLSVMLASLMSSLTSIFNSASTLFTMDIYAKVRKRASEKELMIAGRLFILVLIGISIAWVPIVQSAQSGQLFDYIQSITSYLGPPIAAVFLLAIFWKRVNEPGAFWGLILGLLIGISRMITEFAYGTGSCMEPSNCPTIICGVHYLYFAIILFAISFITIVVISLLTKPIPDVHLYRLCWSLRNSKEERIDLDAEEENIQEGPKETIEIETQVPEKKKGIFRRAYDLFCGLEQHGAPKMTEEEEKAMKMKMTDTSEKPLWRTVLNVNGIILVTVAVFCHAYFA

Consider `COCCOCCOc1ccc(Cc2cc([C@@H]3O[C@H](SC)[C@@H](O)[C@H](O)[C@H]3O)ccc2Cl)cc1` [(2S,3R,4R,5S,6R)-2-(4-chloro-3-(4-(2-(2-methoxyethoxy)ethoxy)benzyl)phenyl)-6-(methylthio)tetrahydro-2H-pyran-3,4,5-triol], for which the values for the IC50 in assay [1] and in assay [2] were < 0.01 µM and < 0.1 µM, respectively.

With `CS[C@H]1O[C@@H](c2ccc(C)c(Cc3ccc(CCCCC(=O)NC(C)(C)C(=O)O)cc3)c2)[C@H](O)[C@@H](O)[C@@H]1O` [2-methyl-2-(5-(4-(2-methyl-5-((2S,3R,4R,5S,6R)-3,4,5-trihydroxy-6-(methylthio)tetrahydro-2H-pyran-2-yl)benzyl)phenyl)pentanamido)propanoic acid], in assay [1], the IC50 was < 0.1 µM. Besides, in assay [2], the “SGLT1 (human SGLT1 IC50)” value is listed as “—”.

For `CS[C@H]1O[C@@H](c2ccc(Cl)c(Cc3ccc(OCC(=O)NCCCC[C@H](N)C(=O)O)cc3)c2)[C@H](O)[C@@H](O)[C@@H]1O` [(S)-2-amino-6-(2-(4-(2-chloro-5-((2S,3R,4R,5S,6R)-3,4,5-trihydroxy-6-(methylthio)tetrahydro-2H-pyran-2-yl)benzyl)phenoxy)acetamido)hexanoic acid], the IC50 in assay [1] is < 0.01 µM; in assay [2], < 0.1 µM.

In the case of `CS[C@H]1O[C@@H](c2ccc(C)c(Cc3ccc(CCCC(=O)NC(C)(C)C(=O)N4CCC(C)CC4)cc3)c2)[C@H](O)[C@@H](O)[C@@H]1O` [N-(2-methyl-1-(4-methylpiperidin-1-yl)-1-oxopropan-2-yl)-4-(4-(2-methyl-5-((2S,3R,4R,5S,6R)-3,4,5-trihydroxy-6-(methylthio)tetrahydro-2H-pyran-2-yl)benzyl)phenyl)butanamide], the IC50 in assay [1] and in assay [2] was < 0.01 µM each time.

For the compound `CS[C@H]1O[C@@H](c2ccc(C)c(Cc3ccc(CCCC(=O)NC(C)(C)C(=O)N4CCN(C)CC4)cc3)c2)[C@H](O)[C@@H](O)[C@@H]1O` [N-(2-methyl-1-(4-methylpiperazin-1-yl)-1-oxopropan-2-yl)-4-(4-(2-methyl-5-((2S,3R,4R,5S,6R)-3,4,5-trihydroxy-6-(methylthio)tetrahydro-2H-pyran-2-yl)benzyl)phenyl)butanamide], the concentration for half-maximal inhibition (IC50) in assay [1] and in assay [2] was < 0.01 µM throughout.

Turning to `CS[C@H]1O[C@@H](c2ccc(C)c(Cc3ccc(CCCC(=O)NCC(C)(C)C(=O)O)cc3)c2)[C@H](O)[C@@H](O)[C@@H]1O` [2,2-dimethyl-3-(4-(4-(2-methyl-5-((2S,3R,4R,5S,6R)-3,4,5-trihydroxy-6-(methylthio)tetrahydro-2H-pyran-2-yl)benzyl)phenyl)butanamido)propanoic acid], the IC50 in assay [1] is < 0.01 µM; in assay [2], < 0.1 µM.

Turning to `CS[C@H]1O[C@@H](c2ccc(C)c(Cc3ccc(CCCc4nnn(CC(=O)N5CCN(C)CC5)n4)cc3)c2)[C@H](O)[C@@H](O)[C@@H]1O` [2-(5-(3-(4-(2-methyl-5-((2S,3R,4R,5S,6R)-3,4,5-trihydroxy-6-(methylthio)tetrahydro-2H-pyran-2-yl)benzyl)phenyl)propyl)-2H-tetrazol-2-yl)-1-(4-methylpiperazin-1-yl)ethanone], the IC50 in assay [1] and in assay [2] was < 0.01 µM in each case.

Turning to `CS[C@H]1O[C@@H](c2ccc(C)c(Cc3ccc(OCCCC(=O)N4CCN(C)CC4)cc3)c2)[C@H](O)[C@@H](O)[C@@H]1O` [4-(4-(2-methyl-5-((2S,3R,4R,5S,6R)-3,4,5-trihydroxy-6-(methylthio)tetrahydro-2H-pyran-2-yl)benzyl)phenoxy)-1-(4-methylpiperazin-1-yl)butan-1-one], the IC50 in assay [1] was < 0.01 µM; in assay [2], < 0.1 µM.

Regarding `CS[C@H]1O[C@@H](c2ccc(C)c(Cc3ccc(CCCCNC(CO)(CO)CO)cc3)c2)[C@H](O)[C@@H](O)[C@@H]1O` [(2S,3R,4R,5S,6R)-2-(3-(4-(4-((1,3-dihydroxy-2-(hydroxymethyl)propan-2-yl)amino)butyl)benzyl)-4-methylphenyl)-6-(methylthio)tetrahydro-2H-pyran-3,4,5-triol], the IC50 in assay [1] and in assay [2] was < 0.01 µM each time.

For `CS[C@H]1O[C@@H](c2ccc(C)c(Cc3ccc(OCC(=O)NC(CO)(CO)CO)cc3)c2)[C@H](O)[C@@H](O)[C@@H]1O` [N-(1,3-dihydroxy-2-(hydroxymethyl)propan-2-yl)-2-(4-(2-methyl-5-((2S,3R,4R,5S,6R)-3,4,5-trihydroxy-6-(methylthio)tetrahydro-2H-pyran-2-yl)benzyl)phenoxy)acetamide], the IC50 was < 0.01 µM in assay [1] and < 0.1 µM in assay [2].

Regarding `CS[C@H]1O[C@@H](c2ccc(C)c(Cc3ccc(/C=C/CCC(=O)NC(C)(C)C(N)=O)cc3)c2)[C@H](O)[C@@H](O)[C@@H]1O` [(E)-N-(1-amino-2-methyl-1-oxopropan-2-yl)-5-(4-(2-methyl-5-((2S,3R,4R,5S,6R)-3,4,5-trihydroxy-6-(methylthio)tetrahydro-2H-pyran-2-yl)benzyl)phenyl)pent-4-enamide], the IC50 in assay [1] and in assay [2] was < 0.01 µM each time.

In the case of `CCN(CC)CCOc1ccc(Cc2cc([C@@H]3O[C@H](SC)[C@@H](O)[C@H](O)[C@H]3O)ccc2Cl)cc1` [(2S,3R,4R,5S,6R)-2-(4-chloro-3-(4-(2-(diethylamino)ethoxy)benzyl)phenyl)-6-(methylthio)tetrahydro-2H-pyran-3,4,5-triol], the IC50 in assay [1] and in assay [2] was < 0.01 µM each time.

Consider `CS[C@H]1O[C@@H](c2ccc(C)c(Cc3ccc(OCC(N)=O)cc3)c2)[C@H](O)[C@@H](O)[C@@H]1O` [2-(4-(2-methyl-5-((2S,3R,4R,5S,6R)-3,4,5-trihydroxy-6-(methylthio)tetrahydro-2H-pyran-2-yl)benzyl)phenoxy)acetamide], for which the IC50 in assay [1] is < 0.01 µM; in assay [2] it was < 0.1 µM.

Regarding `CS[C@H]1O[C@@H](c2ccc(C)c(Cc3ccc(OCC(O)CO)cc3)c2)[C@H](O)[C@@H](O)[C@@H]1O` (stereo partly drawn) [(2S,3R,4R,5S,6R)-2-(3-(4-(2,3-dihydroxypropoxy)benzyl)-4-methylphenyl)-6-(methylthio)tetrahydro-2H-pyran-3,4,5-triol], the IC50 in assay [1] and in assay [2] was < 0.1 µM each time.

Consider `CS[C@H]1O[C@@H](c2ccc(C)c(Cc3ccc(OCCCNCC(C)(C)C(N)=O)cc3)c2)[C@H](O)[C@@H](O)[C@@H]1O` [2,2-dimethyl-3-((3-(4-(2-methyl-5-((2S,3R,4R,5S,6R)-3,4,5-trihydroxy-6-(methylthio)tetrahydro-2H-pyran-2-yl)benzyl)phenoxy)propyl)-amino)propanamide], for which the IC50 in assay [1] and in assay [2] was < 0.01 µM in each case.

Turning to `CS[C@H]1O[C@@H](c2ccc(C)c(Cc3ccc(CCCCCCC(=O)NC(C)(C)C(N)=O)cc3)c2)[C@H](O)[C@@H](O)[C@@H]1O` [N-(1-amino-2-methyl-1-oxopropan-2-yl)-7-(4-(2-methyl-5-((2S,3R,4R,5S,6R)-3,4,5-trihydroxy-6-(methylthio)tetrahydro-2H-pyran-2-yl)benzyl)phenyl)heptanamide], the half-inhibitory concentration (IC50) was < 0.01 µM in assay [1] and < 0.1 µM in assay [2].

On to `CS[C@H]1O[C@@H](c2ccc(Cl)c(Cc3ccc(OCCN)cc3)c2)[C@H](O)[C@@H](O)[C@@H]1O` [(2S,3R,4R,5S,6R)-2-(3-(4-(2-aminoethoxy)benzyl)-4-chlorophenyl-6-(methylthio)tetrahydro-2H-pyran-3,4,5-triol], for which the 50% inhibitory concentration (IC50) in assay [1] was < 0.01 µM; in assay [2], < 0.1 µM.

With `CS[C@H]1O[C@@H](c2ccc(C)c(Cc3ccc(CCCC(=O)NCC(C)(C)C(=O)NC4CCNCC4)cc3)c2)[C@H](O)[C@@H](O)[C@@H]1O` [N-(2,2-dimethyl-3-oxo-3-(piperidin-4-ylamino)propyl)-4-(4-(2-methyl-5-((2S,3R,4R,5S,6R)-3,4,5-trihydroxy-6-(methylthio)tetrahydro-2H-pyran-2-yl)benzyl)phenyl)butanamide], the 50% inhibitory concentration (IC50) in assay [1] is < 0.01 µM; in assay [2], < 0.1 µM.

With `CS[C@H]1O[C@@H](c2ccc(C)c(Cc3ccc(OCCCC(=O)N[C@@H](C)C(N)=O)cc3)c2)[C@H](O)[C@@H](O)[C@@H]1O` [N-((S)-1-amino-1-oxopropan-2-yl)-4-(4-(2-methyl-5-((2S,3R,4R,5S,6R)-3,4,5-trihydroxy-6-(methylthio)tetrahydro-2H-pyran-2-yl)benzyl)phenoxy)butanamide], the IC50 in assay [1] is < 0.01 µM; in assay [2] it was < 0.1 µM.

For `CS[C@H]1O[C@@H](c2ccc(C)c(Cc3ccc(CCCCN)cc3)c2)[C@H](O)[C@@H](O)[C@@H]1O` [(2S,3R,4R,5S,6R)-2-(3-(4-(4-aminobutyl)benzyl)-4-methylphenyl)-6-(methylthio)tetrahydro-2H-pyran-3,4,5-triol], the IC50 in assay [1] and in assay [2] was < 0.01 µM each time.

Turning to `CS[C@H]1O[C@@H](c2ccc(C)c(Cc3ccc(CCCCC(=O)NC(CO)(CO)CO)cc3)c2)[C@H](O)[C@@H](O)[C@@H]1O` [N-(1,3-dihydroxy-2-(hydroxymethyl)propan-2-yl)-5-(4-(2-methyl-5-((2S,3R,4R,5S,6R)-3,4,5-trihydroxy-6-(methylthio)tetrahydro-2H-pyran-2-yl)benzyl)phenyl)pentanamide], the 50% inhibitory concentration (IC50) in assay [1] and in assay [2] was < 0.01 µM each time.
